From US11746383B2, “Biomarker DLEC1 for cancer” (The Chinese University of Hong Kong, priority 2018, dated 2023)
Blank lines part the entries; values can stand above or below the molecule they belong to.

Experiments:
DLEC1 CGI = assay: ChIP assay, acetylated histone H4; format: cell-based, human; conditions: carcinoma cells following TSA treatment
Protocol: ChIP assay was performed as described previously. Antibody to acetylated histone H4 (Upstate Biotechnology) was used to precipitate cross-linked chromatin. ACTIN was employed as a control for normalization of each PCR product.

[1] = test system: DLEC1 expression in ESCC, lung and NPC carcinoma cell lines; assay: Demethylation treatment (Aza, TSA) and DLEC1 expression / promoter methylation analysis (RT-PCR, MSP, BGS); format: cell-based, human
Text: A panel of ESCC, NPC and lung carcinoma cell lines was used. Immortalized normal esophageal epithelial (NE1, NE3, Het-1A), normal nasopharyngeal epithelial (NP69) and HEK293T cell lines were used. Cell lines were maintained in RPMI or DMEM medium (Gibco BRL, Rockville, Md.) with 10% fetal bovine serum. Human normal adult tissue RNA samples were obtained commercially (Stratagene, La Jolla, Calif., or Millipore Chemicon, Billerica, Mass.). Primary carcinoma tissues of Chinese ESCC, NPC and lung, some with matched normal samples, have been descried before. Cell lines were treated with 5 μM of 5-Aza-2′-deoxycytidine (Aza) (Sigma, St. Louis, Mo.) for 3 days, or even followed with ˜16 h additional TSA (final concentration […]) treatment as described. MSP and BGS were conducted according to previous reports. MSP was conducted for 40 cycles at the annealing temperatures of 60° C. for M and 58° C. for U. Amplified products from BGS primer set were cloned into pCR4-Topo vector (Invitrogen, Carlsbad, Calif.), with 6-8 colonies randomly chosen and sequenced. RNA was reverse-transcribed using MuLV reverse transcriptase (GeneAmp RNA PCR kit, Applied Biosystems). RT-PCR was performed as described previously using GAPDH as a control.

[2] = test system: NF-κB, AP-1, STATs-bs, TopFlash, SRE and PAI-1 reporters; assay: Dual-luciferase reporter assay of signaling pathways; format: cell-based, human; conditions: carcinoma cells (ESCC, lung, NPC) or immortalized normal epithelial cells (NP69)
Protocol: The promoter activities were determined by luciferase reporter assays. Luciferase reporters of several key signaling pathways, including NF-κB-luc, AP-1-luc, SRE-luc, STATs-bs-luc, TopFlash-luc, and PAI-luc were used to examine signaling pathway regulated by DLEC1 Cells were transiently co-transfected with DLEC1 expression vector and phRL-TK […]. […] After 48 h, cells were lysed and luciferase activities were measured using Dual-Luciferase® Reporter Assay System (Promega, Madison, Wis.). To normalize transfection efficiency, phRL-TK luciferase activities were measured as an internal control. At least three independent experiments were performed, with each repeated in triplicates.

carcinoma cells [3] = assay: EMT, actin stress fiber and stemness marker analysis (immunofluorescence, Western blot, qPCR); format: cell-based, human
Protocol: RNA was reverse-transcribed using MuLV reverse transcriptase (GeneAmp RNA PCR kit, Applied Biosystems). RT-PCR was performed as described previously using GAPDH as a control.
Cells grown on coverslips were stained by indirect immunofluorescence as described previously. Briefly, cells were incubated with primary antibodies against DLEC1, E-cadherin, or Vimentin and then incubated with Alexa Fluor 594-conjugated secondary antibody against mouse IgG (A11062) (Invitrogen Molecular Probes, Carlsbad, Calif.), or FITC-conjugated secondary antibody against rabbit IgG (F0205) (DAKO, Denmark). To analyze the effects of DLEC1 on actin stress fiber formation, cells were serum starved for 24 h before incubation in medium-containing 5% fetal bovine serum. After 1 h, cells were fixed and stained by Rhodamine-labeled phalloidin (Invitrogen Molecular Probes). Cells were then counterstained with DAPI and imaged with an Olympus BX51 microscope (Olympus Corporation, Tokyo, Japan).

JAK2 = molecular target: T1, JAK2 (Homo sapiens, UniProt O60674); assay: Co-immunoprecipitation with JAK2; format: binding
T1 construct: endogenous in cells; host or cells: HEK293T
T1 sequence (O60674 whole entry): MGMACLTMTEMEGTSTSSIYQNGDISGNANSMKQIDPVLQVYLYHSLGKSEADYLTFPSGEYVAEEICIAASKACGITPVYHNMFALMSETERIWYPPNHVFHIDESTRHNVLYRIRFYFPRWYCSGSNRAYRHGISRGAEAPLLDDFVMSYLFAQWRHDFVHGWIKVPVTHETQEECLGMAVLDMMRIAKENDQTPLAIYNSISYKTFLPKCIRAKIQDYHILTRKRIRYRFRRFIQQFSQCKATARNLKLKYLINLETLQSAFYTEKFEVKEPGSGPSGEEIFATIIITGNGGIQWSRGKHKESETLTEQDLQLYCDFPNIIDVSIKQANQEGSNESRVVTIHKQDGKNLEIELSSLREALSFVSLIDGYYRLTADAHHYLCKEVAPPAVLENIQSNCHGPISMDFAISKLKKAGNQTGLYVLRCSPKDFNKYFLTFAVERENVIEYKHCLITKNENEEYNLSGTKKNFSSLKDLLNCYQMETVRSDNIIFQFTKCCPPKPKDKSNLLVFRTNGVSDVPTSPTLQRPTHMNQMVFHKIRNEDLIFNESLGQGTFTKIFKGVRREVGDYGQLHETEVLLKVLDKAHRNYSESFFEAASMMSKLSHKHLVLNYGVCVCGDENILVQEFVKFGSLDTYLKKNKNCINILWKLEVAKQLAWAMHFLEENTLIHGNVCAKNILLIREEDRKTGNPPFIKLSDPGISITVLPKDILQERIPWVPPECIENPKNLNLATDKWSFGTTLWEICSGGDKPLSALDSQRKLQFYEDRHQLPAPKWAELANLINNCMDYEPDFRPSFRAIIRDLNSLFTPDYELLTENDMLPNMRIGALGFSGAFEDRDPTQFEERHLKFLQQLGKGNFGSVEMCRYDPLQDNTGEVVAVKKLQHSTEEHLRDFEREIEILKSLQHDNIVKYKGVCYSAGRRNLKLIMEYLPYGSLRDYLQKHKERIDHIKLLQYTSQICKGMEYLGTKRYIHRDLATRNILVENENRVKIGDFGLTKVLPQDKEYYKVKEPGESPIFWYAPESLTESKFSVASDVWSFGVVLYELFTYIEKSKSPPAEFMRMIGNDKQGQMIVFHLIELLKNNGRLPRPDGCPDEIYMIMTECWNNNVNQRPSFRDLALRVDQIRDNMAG
Protocol: (§1) Human IL-6 (PF01229) (Peprotech, Rocky Hill, N.J.) was used. Western blot and IP experiments were performed according to previous protocols.

[4] = test system: ESCC, lung and NPC carcinoma cells; assay: Monolayer colony formation assay; format: cell-based, human; conditions: ectopically expressed DLEC1 in ESCC
Protocol: (§2) Four pairs of primers (Table 6) were used to generate 4 DLEC1 fragments based on published DLEC1 sequence (GenBank accession number AB020522). Reverse transcription was carried out using normal testis RNA as template (BD Biosciences, Palo Alto, Calif.). The 4 product fragments were ligated to generate pcDNA3.1(+)-Flag-DLEC1 and pCMV-Flag-DLEC1-V5 expression plasmids. The mutation for three YXXQ motifs of DLEC1 (DLEC1-3Y, YXXQ-GGGG (“GGGG” disclosed as SEQ ID NO: 7)) was introduced by PCR into pCMV-Flag-DLEC1-V5 vector, with sequence confirmed. STAT3C expression plasmid was a gift from Prof. Honglin Chen (University of Hong Kong). Cells were transfected with lipofectamine 3000 (Invitrogen, Carlsbad, Calif.), and the cells were cultured in RPMI 1640 supplemented with 10% FBS and selected in 400 μg/mL of G418 for 20-30 days to establish some stable cell pools, with confirmed DLEC1 expression.
(§3) Colony formation assay was conducted as previously described. All experiments were performed in triplicate wells 3 times. To monitor cell proliferation, 1000 cells were plated in a 96-well plate and incubated at 37° C. in selective media for 3-(4,5-dimethylthiazolyl-2)-2,5-diphenyltetrazolium bromide (MTT) assay.

carcinoma cells [5] = assay: Cell apoptosis assay (Annexin V-FITC/PI flow cytometry, Western blot of apoptosis markers); format: cell-based, human
Protocol: (§4) Flow cytometry analysis of cell cycle and apoptosis was described previously. Cells were stained with propidium iodide (PI) and Annexin V-FITC (BD Biosciences, Bedford, Mass.), and sorted by Accuri C6 (BD Biosciences, Bedford, Mass.) according to the manufacturer's protocol.
as §1

[6] = test system: multiple carcinoma cells stably-expressing DLEC1; assay: Cell proliferation (MTT) assay; format: cell-based, human
Protocol: as §2, §3

carcinoma cells [7] = assay: Scratch wound-healing assay; format: cell-based, human; conditions: confluent monolayer, versus mock cells
Protocol: Cell motility was assessed using a scratch wound-healing assay. Cells transient transfected with DLEC1 were cultured in 6-well plates until confluent. A single scratch was produced in the cell layer using a sterile tip. After incubation for 24 and 48 hours, cells were photographed under a phase contrast microscope. The experiments were performed in triplicates.

[8] = test system: p-ERK, p-AKT, p-STAT3, active β-catenin; assay: Western blot of signaling protein phosphorylation; format: cell-based, human
Protocol: as §1

[9] = test system: KYSE150, H1299 and HONE1 cells; assay: Cell cycle analysis by flow cytometry (propidium iodide); format: cell-based, human; conditions: DLEC1-expressing KYSE150, H1299 and HONE1 cells
Text: as §4

[10] = test system: ESCC, lung and NPC carcinoma cells; assay: Transwell migration and Matrigel invasion assays; format: cell-based, human; conditions: transwell assay, ectopic expression of DLEC1
Protocol: Transwell migration and invasion assays were performed as previously described. The numbers of migrated or invaded cells were observed and counted using a light microscope. Five fields were randomly chosen and the numbers of penetrated cells were counted.

STAT3 = molecular target: T2, STAT3 (Homo sapiens, UniProt P40763); assay: Co-immunoprecipitation with STAT3; format: binding
T2 construct: Association of endogenous DLEC1 and STAT3 proteins in HEK293T cells; endogenous in cells; host or cells: HEK293T
T2 sequence (P40763 whole entry): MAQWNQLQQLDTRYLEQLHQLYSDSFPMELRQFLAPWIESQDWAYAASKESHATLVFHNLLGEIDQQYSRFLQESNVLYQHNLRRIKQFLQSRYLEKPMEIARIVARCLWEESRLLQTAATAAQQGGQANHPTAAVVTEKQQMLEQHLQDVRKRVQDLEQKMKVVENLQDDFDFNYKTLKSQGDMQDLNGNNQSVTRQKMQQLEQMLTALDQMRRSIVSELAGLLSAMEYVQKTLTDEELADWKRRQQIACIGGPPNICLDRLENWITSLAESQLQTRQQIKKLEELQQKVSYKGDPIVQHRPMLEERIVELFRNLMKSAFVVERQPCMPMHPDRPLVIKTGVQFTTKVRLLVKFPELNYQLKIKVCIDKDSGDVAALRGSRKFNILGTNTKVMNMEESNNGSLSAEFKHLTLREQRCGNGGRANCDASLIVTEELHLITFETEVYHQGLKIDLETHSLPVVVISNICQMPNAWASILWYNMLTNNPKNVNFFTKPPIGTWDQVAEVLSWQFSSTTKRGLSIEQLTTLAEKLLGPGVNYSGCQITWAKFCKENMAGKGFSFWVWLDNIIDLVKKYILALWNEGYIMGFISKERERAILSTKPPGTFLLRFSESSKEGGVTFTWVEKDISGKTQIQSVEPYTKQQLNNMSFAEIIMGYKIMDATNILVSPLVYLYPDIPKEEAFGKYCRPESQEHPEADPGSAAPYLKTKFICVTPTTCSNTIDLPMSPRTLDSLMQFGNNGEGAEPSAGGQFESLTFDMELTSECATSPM
Protocol: as §1

binding of acetylated histone 4 to the DLEC1 CGI (DLEC1 CGI): increased
Molecule: CC(/C=C/C(=O)NO)=C\[C@@H](C)C(=O)c1ccc(N(C)C)cc1 [TSA, Trichostatin A]
DLEC1 expression ([1]; TSA-treated lung carcinoma cell line H1299): moderately induced

interaction of STAT3 with JAK2 (JAK2; IL-6 dependent manner): inhibited
interaction with JAK2 and p-STAT3 (Tyr705) (JAK2; IL-6 stimulation): decreasing
co-precipitation of JAK2 (JAK2; endogenous proteins, HEK293T cells): relatively weaker co-precipitation
interaction of DLEC1 with STAT3 (STAT3; IL-6 stimulation): increased
interaction with STAT3/p-STAT3 (Tyr705) (STAT3; endogenous proteins, HEK293T cells, immunoprecipitation): strong interaction
Molecule: DLEC1: 1755-amino acid human DLEC1 protein (SEQ ID NO:4), ectopically expressed from pcDNA3.1(+)-Flag-DLEC1 / pCMV-Flag-DLEC1-V5 plasmids
reporter activities of NF-κB, AP-1, STATs-bs, TopFlash, SRE and PAI-1 elements-regulated promoters [2]: markedly repressed
stem cell markers (STAT3, CD44, ABCG2, TWIST and KLF4) (carcinoma cells [3]; ESCC and lung carcinoma cells, qPCR): downregulated
E-cadherin, vimentin and metastasis markers (MMP7, Twist) (carcinoma cells [3]; Western blot): Upregulated E-cadherin and downregulated vimentin and metastasis markers (MMP7, Twist)
formation of actin stress fibers (carcinoma cells [3]; carcinoma cells): disassembled
EMT markers E-cadherin and vimentin (carcinoma cells [3]; immunofluorescence): gain of epithelial marker E-cadherin and loss of mesenchymal marker vimentin
colony numbers and sizes compared to controls [4]: 10-40%
apoptosis markers (cleaved caspase-3 and PARP) (carcinoma cells [5]; Western blot): increase
apoptotic cells (carcinoma cells [5]; after transfection with DLEC1-expression vector): significantly increased
growth rates [6]: slower growth rates
closing of artificial wounds (carcinoma cells [7]): less proficiency in closing artificial wounds than mock cells
levels of p-ERK (Thr202/Tyr204), p-AKT (Ser473), p-STAT3 (Tyr705 and Ser727) and active β-catenin ([8]; DLEC1-expressing carcinoma cells): significantly decreased
IL-6 treatment-enhanced STAT3 phosphorylation levels ([8]; IL-6 10 ng/mL for 30 min, KYSE150 and H1299 cells): suppress
p-STAT3 levels at both Tyr705 and Ser727 sites ([8]; STAT3C-transfected carcinoma cells): greatly suppressed
p-STAT3 (Tyr705) ([8]; increasing doses of DLEC1-expressing plasmids, dose-dependent): Marked decrease
cell cycle distribution [9]: increased G2-M phase cells and decreased S phase cells
cell invasion [10]: dramatically suppressed
cell migration [10]: dramatically suppressed

Molecule: Nc1ncn([C@H]2C[C@H](O)[C@@H](CO)O2)c(=O)n1 [Aza, 5-aza-2′-deoxycytidine]
Expression of DLEC1 ([1]; NPC cells): restored or increased
DLEC1 expression ([1]; cell lines of ESCC, lung and NPC with silenced DLEC1, 5 μM Aza for 3 days, or followed with ~16 h TSA): increased
